Earlier results on 1 compound are cited in patent US11510895B2, “Compositions and formulations including cabazitaxel and human serum albumin” (Zhuhai Beihai Biotech Co., Ltd., priority 2016, dated 2022).

One data set relates to human serum proteins. Conditions: in vitro.
Another data set has as its target human serum albumin (Homo sapiens, UniProt P02768). Conditions: in vitro.

human serum albumin, sequence (P02768 25-609): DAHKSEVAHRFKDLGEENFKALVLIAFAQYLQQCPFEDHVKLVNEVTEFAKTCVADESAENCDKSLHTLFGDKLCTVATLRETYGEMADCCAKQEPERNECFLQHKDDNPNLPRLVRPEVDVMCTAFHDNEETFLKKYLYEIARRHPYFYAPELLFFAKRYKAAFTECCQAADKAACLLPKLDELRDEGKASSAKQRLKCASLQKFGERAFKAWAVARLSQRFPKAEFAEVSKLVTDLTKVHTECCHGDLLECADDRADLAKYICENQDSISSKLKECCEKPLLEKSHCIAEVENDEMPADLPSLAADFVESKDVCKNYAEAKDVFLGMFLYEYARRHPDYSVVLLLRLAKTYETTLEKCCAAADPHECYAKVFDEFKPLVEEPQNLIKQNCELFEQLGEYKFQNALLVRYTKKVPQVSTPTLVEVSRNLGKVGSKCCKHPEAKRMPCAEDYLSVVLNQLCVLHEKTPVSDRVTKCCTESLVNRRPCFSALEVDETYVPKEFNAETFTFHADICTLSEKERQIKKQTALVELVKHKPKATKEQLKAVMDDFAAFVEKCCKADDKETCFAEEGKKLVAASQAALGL

`CO[C@H]1C(=O)[C@]2(C)[C@@H](OC)C[C@H]3OC[C@@]3(OC(C)=O)[C@H]2[C@H](OC(=O)c2ccccc2)[C@]2(O)C[C@H](OC(=O)[C@H](O)[C@@H](NC(=O)OC(C)(C)C)c3ccccc3)C(C)=C1C2(C)C` [cabazitaxel]: the solubility in alcohol result was “soluble” and the solubility in water entry is on record as “practically insoluble”. For the same compound, the “saturability of the binding to human serum proteins” value with human serum proteins was “not saturable up to 50,000”. Also, on human serum albumin, the “bound to human serum albumin” value is 82%.
